Data from patent US9617256B2 (priority 2007, dated 2017).
In brackets after ≈: the same amount, converted by molar mass.

What was measured:
APAE001 (ATCC27853) = assay: MIC broth microdilution, APAE001; assay type: cell-based, P. aeruginosa; conditions: Pseudomonas aeruginosa, ATCC27853, read-out: MIC APAE001, APAE001 is ATCC27853
Outline: (§1)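 Incubation: 35° C., ambient air, 18-24 h. Medium: cation-adjusted Mueller-Hinton broth with 2-fold serial dilutions of drug. Inoculum: 3×10^5–7×10^5 CFU/mL final, per CLSI microdilution method.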

AECO001 (ATCC25922) = assay: MIC broth microdilution, AECO001; assay type: cell-based, E. coli; conditions: Escherichia coli, ATCC25922, read-out: MIC AECO001
Outline: as §1

[1] = tested on: AECO063 (ATCC25922 bearing an acrAB mutation); assay: microbe, parasite or virus in culture; assay type: cell-based, E. coli; conditions: Escherichia coli, ATCC25922, read-out: MIC AECO063
Outline: as §1

[2] = tested on: APAE006 (strain of P. aeruginosa in which all efflux pumps are inactivated); assay: microbe, parasite or virus in culture; assay type: cell-based; conditions: Pseudomonas aeruginosa, read-out: MIC APAE006, P. aeruginosa, all efflux pumps inactivated
Outline: (§2)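 CLSI broth microdilution in cation-adjusted Mueller-Hinton broth, final inoculum 3×10^5–7×10^5 CFU/mL, 2-fold drug dilutions, 18-24 hours at 35° C. in ambient air. APAE006 is an efflux-pump-inactivated P. aeruginosa strain. Assay performance monitored with QC strains and levofloxacin.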

[3] = tested on: APAE006 in the presence of 8 micrograms per milliliter of polymyxin B nonapeptide; assay type: cell-based, P. aeruginosa; conditions: in the presence of 8 micrograms per milliliter of polymyxin B nonapeptide
Outline: as §2

[4] = tested on: ASAU001 (laboratory strain of S. aureus, ATCC29213); assay: MIC broth microdilution, ASAU001; assay type: cell-based; conditions: Staphylococcus aureus, ATCC29213, read-out: MIC ASAU001
Outline: as §1

AECO001 HSA AGP = assay: MIC broth microdilution, AECO001 HSA AGP; assay type: cell-based, E. coli; conditions: Escherichia coli
Outline: as §1

[5] = tested on: AABA1060 (clinical isolate of Acinetobacter baumannii); assay: MIC broth microdilution, AABA1060; assay type: cell-based; conditions: Acinetobacter baumannii, read-out: MIC AABA1060
Outline: as §1

Row | SMILES | MIC (APAE001 (ATCC27853)) [µg/mL] | MIC (AECO001 (ATCC25922)) [µg/mL] | MIC [1] [µg/mL] | MIC [2] [µg/mL] | MIC APAE006 + PMBN [3] | MIC [4] [µg/mL] | MIC (AECO001 HSA AGP) [µg/mL] | MIC [5] [µg/mL]
1 | CC(C)[C@H](NC(=O)c1ccc(/C=C/C#Cc2ccc(CN3CCOCC3)cc2)cc1)C(=O)NO [Example 110-2] | 2 to 16 (≈ 4.33 to 34.7 µM) | < 2 | < 2 | < 2 | A (MIC's of 2.0 μg/mL or less = A) | > 64 | 2 to 16 (≈ 4.33 to 34.7 µM) | 2 to 16 (≈ 4.33 to 34.7 µM)
2 | C[C@@H](N)[C@H](NC(=O)c1ccc(/C=C/C#Cc2ccc(CN3CCOCC3)cc2)cc1)C(=O)NO [Example 110-3] | < 2 | < 2 | < 2 | < 2 | A (MIC's of 2.0 μg/mL or less = A) | > 64 | 2 to 16 (≈ 4.32 to 34.6 µM) | 2 to 16 (≈ 4.32 to 34.6 µM)
3 | O=C(N[C@H](C(=O)NO)C1CCOCC1)c1ccc(/C=C/C#Cc2ccc(CN3CCOCC3)cc2)cc1 [Example 110-4] | 2 to 16 (≈ 3.97 to 31.8 µM) | < 2 | < 2 | < 2 | A (MIC's of 2.0 μg/mL or less = A) | 16 to 64 (≈ 31.8 to 127 µM) | 2 to 16 (≈ 3.97 to 31.8 µM) | 16 to 64 (≈ 31.8 to 127 µM)
4 | C[C@H](O)[C@H](NC(=O)c1ccc(/C=C/C#Cc2ccc(CN3CCOCC3)cc2)cc1)C(=O)NO [Example 110-5] | 2 to 16 (≈ 4.31 to 34.5 µM) | < 2 | < 2 | < 2 | A (MIC's of 2.0 μg/mL or less = A) | > 64 | 2 to 16 (≈ 4.31 to 34.5 µM) | 2 to 16 (≈ 4.31 to 34.5 µM)
5 | COC(C)[C@H](NC(=O)c1ccc(/C=C/C#Cc2ccc(CN3CCOCC3)cc2)cc1)C(=O)NO (stereo partly drawn) [Example 110-6] | 2 to 16 (≈ 4.19 to 33.5 µM) | < 2 | < 2 | < 2 | A (MIC's of 2.0 μg/mL or less = A) | > 64 | 2 to 16 (≈ 4.19 to 33.5 µM) | 2 to 16 (≈ 4.19 to 33.5 µM)
6 | CC(C)(O)[C@H](NC(=O)c1ccc(/C=C/C#Cc2ccc(CN3CCOCC3)cc2)cc1)C(=O)NO [Example 110-7] | 2 to 16 (≈ 4.19 to 33.5 µM) | < 2 | < 2 | < 2 | A (MIC's of 2.0 μg/mL or less = A) | > 64 | 2 to 16 (≈ 4.19 to 33.5 µM) | < 2
7 | O=C(N[C@H](C(=O)NO)C1CCS(=O)(=O)CC1)c1ccc(/C=C/C#Cc2ccc(CN3CCOCC3)cc2)cc1 [Example 110-8] | 2 to 16 (≈ 3.63 to 29 µM) | < 2 | < 2 | < 2 | A (MIC's of 2.0 μg/mL or less = A) | > 64 | 16 to 64 (≈ 29 to 116 µM) | 16 to 64 (≈ 29 to 116 µM)
8 | O=C(N[C@H](C(=O)NO)C1CC1)c1ccc(/C=C/C#Cc2ccc(CN3CCOCC3)cc2)cc1 [Example 110-9] | 2 to 16 (≈ 4.35 to 34.8 µM) | < 2 | < 2 | < 2 | A (MIC's of 2.0 μg/mL or less = A) | > 64 | 2 to 16 (≈ 4.35 to 34.8 µM) | 2 to 16 (≈ 4.35 to 34.8 µM)
9 | O=C(N[C@@H](Cn1cncn1)C(=O)NO)c1ccc(/C=C/C#Cc2ccc(CN3CCOCC3)cc2)cc1 [Example 110-10] | 2 to 16 (≈ 4 to 32 µM) | < 2 | < 2 | < 2 | A (MIC's of 2.0 μg/mL or less = A) | 16 to 64 (≈ 32 to 128 µM) | 2 to 16 (≈ 4 to 32 µM) | 16 to 64 (≈ 32 to 128 µM)
10 | O=C(N[C@H](C(=O)NO)c1ccccc1)c1ccc(/C=C/C#Cc2ccc(CN3CCOCC3)cc2)cc1 [Example 110-11] | 16 to 64 (≈ 32.3 to 129 µM) | < 2 | < 2 | < 2 | A (MIC's of 2.0 μg/mL or less = A) | 16 to 64 (≈ 32.3 to 129 µM) | 2 to 16 (≈ 4.04 to 32.3 µM) | 16 to 64 (≈ 32.3 to 129 µM)
11 | O=C(NC(C(=O)NO)C(F)(F)F)c1ccc(/C=C/C#Cc2ccc(CN3CCOCC3)cc2)cc1 (stereo not drawn) [Example 110-12] | 2 to 16 (≈ 4.1 to 32.8 µM) | < 2 | < 2 | < 2 | A (MIC's of 2.0 μg/mL or less = A) | 16 to 64 (≈ 32.8 to 131 µM) | < 2 | < 2
12 | CN(C)CC(=O)NC[C@H](NC(=O)c1ccc(/C=C/C#Cc2ccc(CN3CCOCC3)cc2)cc1)C(=O)NO [Example 111-2] | 2 to 16 (≈ 3.75 to 30 µM) | 2 to 16 (≈ 3.75 to 30 µM) | < 2 | < 2 | A (MIC's of 2.0 μg/mL or less = A) | 16 to 64 (≈ 30 to 120 µM) | 2 to 16 (≈ 3.75 to 30 µM) | 2 to 16 (≈ 3.75 to 30 µM)
